Data as given in patent US9408852B2, “Method of lowering serum uric acid levels with (S)-tofisopam” (PHARMOS CORPORATION, priority 2011, dated 2016).
“And” between values parts separate entries of the source, which are not always exact repeats. Identical values can stand only once.

Test system: fractional excretion of urate
Assay: Fractional excretion of urate in patients with hyperuricemia and gout (Example 9)
Type: in vivo, human
Conditions: 50 mg qd Day 1 and 7, tid Days 2 to 6
Method: The study lasted 7 days, and patients were treated with placebo or 50 mg of enantiomerically-pure (S)-tofisopam once a day (qd) on Day 1 and Day 7 of the study, and with placebo or 50 mg of enantiomerically-pure (S)-tofisopam three times a day (tid) for Days 2 to 6 of the study. […] In Table 8, days indicated with a minus sign (e.g. D-1) indicate the time point corresponding to that number of days before treatment was initiated. For example, D-14 is the time point fourteen days before treatment was initiated.

CC[C@@H]1C(C)=NN=C(c2ccc(OC)c(OC)c2)c2cc(OC)c(OC)cc21 [(S)-tofisopam]
Percent change in FEu (fractional excretion uric acid) (individual patient (P#), [D 1 to D 2] from [D −2 to D −1]): −14.9% and 11.7% and −0.2% and 41.9% and −54.2% and 137.8% and 62.9% and 162.7% and 51.0% and −29.6% and 19.5% and 40.4% | Percent change in FEu (fractional excretion uric acid) (individual patient (P#), [D 6 to D 7] from [D 1 to D 2]): 139.3% and 78.5% and 160.4% and 60.9% and 100.7% and 62.6% and 17.3% and 33.2% and 61.6% and 57.5% and 125.9% | Percent change in FEu (fractional excretion uric acid) (mean (M) of patients, [D 1 to D 2] from [D −2 to D −1]): 35.8% | Percent change in FEu (fractional excretion uric acid) (mean (M) of patients, [D 6 to D 7] from [D 1 to D 2]): 81.6%
